Patent US8686016B2, “Schweinfurthins and uses thereof” (The United States of America, as represented by the …, priority 2009, dated 2014)
Entries after “also recorded” stand apart in the source; their conditions may differ.

Key:
[1] = tested on: NF1-GRD expressing KR158 clones; assay: Cell morphology / actin confocal microscopy, NF1-GRD KR158; format: cell-based, mouse
Procedure: (§1) Constructs and Transfections: NF1-GRD retroviral constructs were obtained from Indiana University. Cells transduced with the NF1-GRD construct or PMSCV empty vector control as previously described (Hiatt et al., J. Biol. Chem., 2001, 276:7240-5) were maintained in 1 μg/mL puromycin (Sigma).
(§2) Cell Morphology Assays and Confocal Microscopy: To assay cytoskeleton morphology, KR158 cells, mouse primary astrocytes, KR158 clones expressing the NF1-GRD constructs, K14553 cells, and A549 were seeded to cover slips and allowed to reattach overnight. Cells were treated for 18 hours with either the indicated concentrations of SA, or the vehicle control DMSO. The cover slips were fixed in 3.7% paraformaldehyde, permeablized in 0.1% Triton-X100, and stained with Alexa Fluor 488-phalloidin (Invitrogen, Carlsbad, Calif., USA) to detect actin and cells were mounted in Prolong Antifade containing DAPI (Invitrogen) to stain nuclei. The cells were imaged on a LSM510 confocal microscope (Carl Zeiss Inc., Jena, Germany). For phospho-myosin light chain 2 (MLC) detection, cells were seeded to coverslips as described above. […] Actin structures were monitored continuously over a 16 hr period using confocal microscopy equipped with a growth chamber (37° C., humidified atmosphere and 5% CO2). […]

MPNST T265 cells = assay: XTT cell proliferation assay, T265; format: cell-based, human
Procedure: (§3) XTT Cell Proliferation Assay: Cells were seeded into 96-well plates at a density of 2,000 cells/well and allowed to reattach overnight. Cells were treated with SA, synthetic analogs, camptothecin (NCI Chemotherapeutics Repository, Md., USA), or DMSO control at the indicated concentrations continuously for 48 hours followed by assay in the 96-well plate for relative viable cell number using the dye […] (XTT) and a Wallac-Victor 2 plate reader (Perkin-Elmer, Waltham, Mass., USA). Absorbance was determined at 450 nm with 650 nm as a reference reading. Primary astrocytes were additionally assayed at a 96 hour time point.
Cell lines and culture: Human MPNST cell lines (STS26T and T265) were obtained from the Pediatric Oncology Branch, NCI (Bethesda, Md., USA).

primary astrocytes = assay: Cell morphology / actin confocal microscopy, primary astrocytes; format: cell-based, mouse; details: 18 hours treatment
Procedure: as §2, with “above. Cells were serum starved in 0.5% FBS and SA or DMSO vehicle control for 18 hours, and then pulsed with 10 ng/mL EGF (Invitrogen) for 5 min.” for “above.”

A549 cells = assay: XTT cell proliferation assay, A549; format: cell-based, human; details: 48 hours
Procedure: as §3

NCI 60-cell line panel = assay: NCI 60 cell line assay; format: cell-based, human
[2] = tested on: phosphorylation of Ser 19 on myosin light chain 2 (MLC2); assay: Phospho-myosin light chain 2 immunostaining, KR158; format: cell-based, mouse; details: KR158 cells treated with SA and EGF
Procedure: as §2, with “above. Cells were serum starved in 0.5% FBS and SA or DMSO vehicle control for 18 hours, and then pulsed with 10 ng/mL EGF (Invitrogen) for 5 min.” for “above.”

[3] = tested on: empty vector transduced KR158 cells; assay: Cell morphology / actin confocal microscopy, empty vector KR158; format: cell-based, mouse
Procedure: as §1, §2

[4] = tested on: A549 human lung carcinoma cells; assay: Clonogenic assay, A549; format: cell-based; details: 18 hrs treatment, colonies after one week
Procedure: Clonogenic Assays: Monolayers of cells were treated for 18 hrs with SA, and then harvested, counted, and seeded to 35 mm dishes at a density of 1000 cells per dish. After one week, macroscopic colonies were stained with crystal violet (Sigma, St. Louis, Mo., USA) and counted.

Rho = Rho GTPase pull-down assay; format: cell-based, mouse; details: EGF pulsed KR158 cells, 12 hrs and 18 hrs
Procedure: Rho GTPase Pull-Down Assay: The Rho pull down assay was obtained from Upstate Biolotech/Millipore (Billerica, Mass., USA, Cat#17-294). KR158 cells were harvested at approximately 80% confluency and seeded at 5×10^5 cells per well in a 6-well plate. After overnight recovery, cells were serum starved in 0.5% FBS for 18 hrs. Cells were then treated with 10 ng/mL EGF either in the presence or the absence of the indicted concentrations of SA for up to 18 hours. At the indicated time points, the cells were lysed according to the manufacturer's protocols. Proteins pulled down by the Rho-GTP binding beads were eluted by SDS, fractionated on a 10% SDS-PAGE gel, and transferred to a nitrocellulose membrane. Pre-pull-down lysates were run in parallel to determine total levels of Rho in each sample. The membrane was probed by an anti Rho antibody.

[5] = tested on: primary astrocytes from wt, Nf1−/+, and NPcis mice; assay: XTT cell proliferation assay, primary astrocytes; format: cell-based, mouse; details: for inhibition of proliferation: XTT
Procedure: as §3
Cell culture: Primary astrocytes were prepared as described previously (Hawes et al., J. Biomol. Screen, 2008, 13:795-803) from 1 day old neonatal brains collected from wt, Nf1−/+, and Nf1−/+; Trp53−/+ cis mice.

[6] = tested on: KR158 astrocytoma cells (Nf1−/−; Trp53−/−); assay: XTT cell proliferation assay, KR158; format: cell-based, mouse
Procedure: as §3

MLC phosphorylation = assay: Phospho-myosin light chain immunostaining, MPNST cell lines; format: cell-based, mouse
Procedure: as §2, with “above. Cells were serum starved in 0.5% FBS and SA or DMSO vehicle control for 18 hours, and then pulsed with 10 ng/mL EGF (Invitrogen) for 5 min.” for “above.”

KR158 cells = assay: MultiTox-Fluor Multiplex Cytotoxicity Assay; format: cell-based, mouse; details: 48 hrs continuous treatment
Procedure: Cytotoxicity Assay: The MultiTox-Fluor Multiplex Cytotoxicity Assay (Promega, Madison, Wis., USA) was used according to manufacturer instructions. Briefly, KR158 cells were harvested and seeded 2,500 cells/well in a black walled 96-well plate (Corning, Lowell, Mass., USA). Cells were treated with SA or DMSO control at the indicated concentrations continuously for 48 hours followed by addition of the fluorescent substrates from the assay kit. The GF-AFC Substrate enters live cells where it is cleaved by the live-cell protease to release AFC. The bis-AAF-R110 substrate cannot enter live cells but instead is be cleaved by the dead-cell protease activity to release R110.

CC(C)=CCC/C(C)=C/Cc1c(O)cc(/C=C/c2cc(O)c3c(c2)C[C@@H]2C(C)(C)[C@H](O)[C@H](O)C[C@@]2(C)O3)cc1O [SA, Schweinfurthin A]
actin structures [1]: did not change
inhibition of proliferation (percent viability versus control) (MPNST T265 cells): potent inhibition of cell proliferation; also recorded: sensitive
actin organization, phalloidin staining (primary astrocytes): no visible changes in actin organization
inhibition of proliferation (percent viability versus control) (A549 cells): does not inhibit; also recorded: no apparent effect
selectivity (NCI 60-cell line panel): 1000 fold
differential cytotoxicity (NCI 60-cell line panel; NCI 60-cell line panel): significant differential cytotoxicity
MLC phosphorylation (Ser 19) [2]: dose dependent decrease of MLC phosphorylation
F-actin structures [3]: same reorganization of F-actin structures
colony growth [4]: not inhibited; also recorded: formed colonies up to the highest concentration of SA tested
Rho activity (Rho): marked inhibition of Rho activity
inhibition of proliferation ([5]; 48 hours): does not inhibit; also recorded: are not; also recorded: resistant
inhibition of proliferation ([5]; 96 hrs continuous treatment): resistant
growth inhibition ([5]; SA concentrations several log-fold higher than the GI50 for KR158): ≤ 40%
inhibition of Nf1 heterozygous cells ([5]; at concentrations of 1 μM): no inhibition
inhibition of proliferation (percent viability versus control) ([6]; 48 hours, XTT): highly active; also recorded: sensitive; also recorded: inhibited both the KR158 and SF-295 cell lines in a dose dependent manner
GI50 ([6]; Mus musculus, KR158, Nf1-mutant astrocytoma cells): 10 nM
MLC phosphorylation (MLC phosphorylation): reduced MLC phosphorylation
cell killing (dead-cell protease activity) (KR158 cells): dose dependent increase of dead-cell protease activity; also recorded: dose dependent increase in cell killing
